The source of these data is US9642925B2, “Magnetic nanoparticle formulations, methods for making such formulations, and methods for their use” (Sanford Research/USD, priority 2010, dated 2017).

Assay [1] has as its system A2780CP ovarian cancer cells. Briefly: In vitro cytotoxicity (MTT assay), A2780CP. To be noted: A2780C/P, 48 h, 2 days, read-out: IC50 (50% cell growth inhibitory concentration). The assay is classed as cell-based. The procedure: (§1) In vitro cytotoxicity was assessed using a standard 3-(4,5-dimethylthiazol-2-yl)-2,5-diphenyltetrazolium bromide (MTT) based colorimetric assay (CellTiter 96 AQeous, Promega, Madison, Wis., USA). Ovarian (A2780CP), breast (MDA-MB-231), and prostate (PC3) cancer cells were used for this experiment. Cells (5000 cells/well in 100 μl media) were cultured in RPMI-1640 or DMEM medium containing 10% FBS and 1% penicillin-streptomycin in 96-well plates and allowed to attach overnight. The media was replaced with fresh media containing different concentrations (2.5-40 μM) of CUR and CUR containing MNPs (F127250-CUR). Equivalent amounts of DMSO or F127250 MNPs without drug in PBS were used as control. These plates were incubated at 37° C. for 2 days. After day 2, the media was replaced with 100 μl fresh media and the MTT reagent (25 μl/well) was added to each well and plates were incubated for 3 hrs at 37° C. in an incubator. The color intensity was measured at 492 nm using a microplate reader (BioMate 3 UV-Vis Spectrophotometer, Thermo Electron Corporation, Hudson, N.H., USA). The anti-proliferation potential of CUR and F127250-CUR treatments was calculated as a percentage of cell growth with respect to the DMSO and F127250 formulation in PBS controls. Standard deviations were obtained from 6 replicates.
On the technique in general: Formazan colour is commonly taken as a measure of viable cells.

The test system of assay [2] is MDA-MB-231 breast cancer cells. The assay is described as follows: In vitro cytotoxicity (MTT assay), MDA-MB-231. The assay is classed as cell-based. To be noted: Homo sapiens, 48 h; MDA-MB-231, 2 days; read-out: IC50 (50% cell growth inhibitory concentration). The procedure: as §1
Assay [3] has as its system PC3 prostate cancer cells. Briefly: In vitro cytotoxicity (MTT assay), PC3. The assay is classed as cell-based. To be noted: 48 h; PC3, 2 days; read-out: IC50 (50% cell growth inhibitory concentration). The method, then: as §1
Another assay deals with PARP. The assay is described as follows: Western blot for PARP cleavage in PC3 cells. The assay is classed as cell-based. To be noted: 20 μM. The procedure:
The immunoblot analyses were performed to determine anti-cancer effects of our formulation at the molecular level. For these experiments, cancer cells were collected after 2 days of treatment with 10 μM and 20 μM CUR and 10 μM and 20 μM of F127250-CUR and processed for protein extraction and Western blotting using standard procedures. The cell lysates were separated by gel electrophoresis on polyacrylamide gels containing sodium dodecyl sulfate and then transferred to PVDF membranes. The membranes were blocked with Tris-buffered saline (TBS) containing 5% (w/v) skimmed milk. After washing thrice with Tween 20, the membranes were incubated overnight with primary antibody specific to Bcl-xL or PARP at 4° C. After washing, the membranes were incubated for 1 hr with secondary antibody (Promega, Madison Wis., USA). Protein bands were visualized using the Lumi-Light Detection Kit (Roche, Nutley, N.J., USA) and detected with a BioRad Gel Doc (BioRad, Hercules, Calif., USA).
In general terms: Immunoblotting shows a protein as a band on a membrane.

The next assay concerns PC3 cancer cells. Briefly: Ultrastructural changes in cancer cells by TEM. The assay is classed as cell-based. As to conditions: 20 μM. The method, then:
The uptake (internalization) pattern of nanoparticles was monitored by transmission electron microscopy (TEM) to further validate the cellular uptake capability of magnetic nanoparticles in cancer cells which was visually observed. For this experiment, aforementioned cells (1×10^7 cells per 150 mm plate) were incubated with 1 mg of particles in 20 ml media for 6 hrs. The treated cells were centrifuged and fixed with standard formaldehyde (4%)-glutaraldehyde (1%) fixative solution followed by OsO4 fixative solution. Next, cells were dehydrated in a graded series of acetone and embedded in Spurr resin. These cell-containing resin blocks were sectioned using an ultramicrotome and ultrathin sections (70-90 nm thickness) were transferred onto TEM grid (grid size: 97 μm) (Ted Pella Inc., Redding, Calif., USA). The grids were processed with uranyl acetate and lead acetate solutions to visualize cellular ultra structures.
The variation of ultrastructural changes in the cancer cells upon exposure to control (DMSO and F127250 formulation), 20 μM CUR or 20 μM F127250-CUR were observed by transmission electron microscopy (TEM) analysis.

For another assay, the system named is Bcl-xL. The assay is described as follows: IHC of Bcl-xL expression in pancreatic tumor xenografts. The assay is classed as in vivo, athymic nude mice. To be noted: intra-tumoral at day 20. The procedure: (§2) FIG. 15. The effect of MNP-curcumin formulation on the expression of Bcl-xL and MCL-1 oncogenes in pancreatic tumor xenografts. Pancreatic tumor xenografts were generated in athymic nude mice by subcutaneous (sc) injection of HPAFII human pancreatic cancer cells. […] The presence of MNPs (iron) in tumors was determined by Prussian Blue staining. Original Magnifications 200×.
(§3) We then tested to effect of MNP-curcumin formulation on the expression of Bcl-xL and MCL-1 oncogenes in pancreatic tumor xenografts. Pancreatic tumor xenografts were generated in athymic nude mice by subcutaneous (sc) injection of HPAFII human pancreatic cancer cells.

A further assay deals with MCL-1. Briefly: IHC of MCL-1 expression in pancreatic tumor xenografts. As to conditions: intra-tumoral at day 20. The assay is classed as in vivo, athymic nude mice. The method, then: as §2, §3

SMILES strings stand for the structures. pIC50: −log10 of the molar value.

For the compound `COc1cc(/C=C/C(=O)CC(=O)/C=C/c2ccc(O)c(OC)c2)ccc1O` [curcumin, (E,E)-1,7-bis(4-Hydroxy-3-methoxyphenyl)-1,6-heptadiene-3,5-dione], the values for the pIC50 in assay [1], in assay [2] and in assay [3] were 4.90, 4.73 and 4.97, respectively. In addition, in the assay on PARP, the PARP cleavage result is “considerable cleavage”. The “ultrastructural changes (vacuole formation)” value in the assay on PC3 cancer cells is “formation of endosomal-lysosomal-vacules”. Besides, the “expression of Bcl-xL oncogene in tumor xenografts” value in the assay on Bcl-xL is recorded as “effectively inhibited the expression”. The “expression of MCL-1 oncogene in tumor xenografts” value in the assay with MCL-1 is recorded as “effectively inhibited the expression”.
